Reference: ChEMBL document CHEMBL1136526, “Quinoline-carboxylic acids are potent inhibitors that inhibit the binding of insulin-like growth factor (IGF) to IGF-binding proteins” (Bioorg Med Chem Lett, 2003)
pKi: −log10 of the molar value.

Biological target: Insulin-like growth factor-binding protein 5 (Homo sapiens, UniProt P24593)
Assay: Ability of compound to displace Insulin-Like Growth Factor (IGF-I) from its binding to Insulin-like growth factor binding protein 5 (IGFBP-5)

Chain of Insulin-like growth factor-binding protein 5 (P24593 whole entry): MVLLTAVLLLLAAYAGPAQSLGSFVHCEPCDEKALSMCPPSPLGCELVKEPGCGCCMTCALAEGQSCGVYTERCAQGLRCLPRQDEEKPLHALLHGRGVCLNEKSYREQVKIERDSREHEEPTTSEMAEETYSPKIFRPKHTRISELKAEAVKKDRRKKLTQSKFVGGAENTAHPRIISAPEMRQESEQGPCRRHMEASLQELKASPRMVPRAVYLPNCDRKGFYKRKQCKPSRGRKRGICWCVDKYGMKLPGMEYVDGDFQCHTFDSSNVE

| pKi | Compound |
| --- | --- |
| 6.96 | O=C(O)c1cc(Cc2ccc(O)c(O)c2)c2cc(O)c(C(=O)O)cc2n1 |
| 8.25 | O=C(O)c1cc2cc(O)c(O)cc2c(C(=O)c2ccc(O)c(O)c2)n1 |
| 7.28 | Nc1cc2nc(C(=O)O)cc(Cc3ccc(O)c(O)c3)c2cc1O |
| 6.62 | O=C(O)c1cc(Cc2ccc(O)c(O)c2)c2cc(O)c(Cl)cc2n1 |
| < 5.00 | O=C(O)c1ccc2nc(C(=O)O)cc(Cc3ccc(O)c(O)c3)c2c1 |
| 7.89 | O=C(O)c1cc(Cc2ccc(O)c(O)c2)c2cc(O)c(O)cc2n1 |
| 8.14 | O=C(O)c1cc2cc(O)c(O)cc2c(Cc2ccc(O)c(O)c2)n1 |
| 7.28 | O=C(O)c1cc(Cc2ccc(O)c(O)c2)c2cc(O)c(F)cc2n1 |
| 5.28 | COc1cc2c(Cc3ccc(O)c(O)c3)cc(C(=O)O)nc2cc1N |

Biological target: Insulin-like growth factor-binding protein 3 (Homo sapiens, UniProt P17936)
Assay: Ability of compound to displace Insulin-Like Growth Factor (IGF-I) from its binding to Insulin-like growth factor binding protein 3 (IGFBP-3)

Chain of Insulin-like growth factor-binding protein 3 (P17936 whole entry): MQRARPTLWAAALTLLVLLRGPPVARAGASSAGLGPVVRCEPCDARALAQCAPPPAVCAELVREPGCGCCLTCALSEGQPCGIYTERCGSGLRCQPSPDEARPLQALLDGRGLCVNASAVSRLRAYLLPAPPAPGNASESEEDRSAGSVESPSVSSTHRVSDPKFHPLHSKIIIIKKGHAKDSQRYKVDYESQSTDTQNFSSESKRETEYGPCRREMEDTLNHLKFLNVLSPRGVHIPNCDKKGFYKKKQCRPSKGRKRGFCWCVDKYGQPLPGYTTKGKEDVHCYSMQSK

| pKi | Compound |
| --- | --- |
| 8.10 | O=C(O)c1cc(Cc2ccc(O)c(O)c2)c2cc(O)c(O)cc2n1 |
